The values that follow come from ChEMBL document CHEMBL4371004, “A-C Estrogens as Potent and Selective Estrogen Receptor-Beta Agonists (SERBAs) to Enhance Memory Consolidation under Low-Estrogen Conditions” (J Med Chem, 2018).

For test [1], the target named is T1, Estrogen receptor beta (Homo sapiens, UniProt Q92731).
In test [2] the target is T2, Estrogen receptor (Homo sapiens, UniProt P03372).
T2 sequence (P03372 whole entry): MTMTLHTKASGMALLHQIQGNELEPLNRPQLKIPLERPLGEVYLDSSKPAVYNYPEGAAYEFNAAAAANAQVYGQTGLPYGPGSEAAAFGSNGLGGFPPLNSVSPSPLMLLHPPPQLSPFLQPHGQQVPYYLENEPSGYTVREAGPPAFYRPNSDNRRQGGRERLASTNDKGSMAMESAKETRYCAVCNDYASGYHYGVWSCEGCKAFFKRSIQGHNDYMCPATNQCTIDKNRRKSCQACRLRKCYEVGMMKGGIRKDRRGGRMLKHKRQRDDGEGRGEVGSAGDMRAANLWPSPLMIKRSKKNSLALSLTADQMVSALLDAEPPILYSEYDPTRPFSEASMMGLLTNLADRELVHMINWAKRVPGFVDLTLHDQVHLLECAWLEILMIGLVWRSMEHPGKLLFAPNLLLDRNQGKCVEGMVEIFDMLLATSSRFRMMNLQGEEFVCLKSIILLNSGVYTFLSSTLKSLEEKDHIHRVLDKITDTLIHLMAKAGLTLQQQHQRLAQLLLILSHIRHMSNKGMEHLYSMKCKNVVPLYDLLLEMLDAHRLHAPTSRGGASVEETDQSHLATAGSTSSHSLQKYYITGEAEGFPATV
Description: Agonist activity at estrogen receptor alpha (unknown origin) after 22 hrs by cell-based luciferase reporter gene assay

Test [3] deals with T2, Estrogen receptor. The source holds these as a separate data set.
Test [4] has as its target T1, Estrogen receptor beta. The source holds these as a separate data set.
Test [5] deals with Mus musculus. Description: Memory enhancement effect in C57BL/6 mouse assessed as time spent with moved object at 10 pg administered as dorsal hippocampal infusion by novel object recognition test. In kind it is functional.
Test [6] relates to Mus musculus. Description: Memory enhancement effect in C57BL/6 mouse assessed as time spent with novel object at 10 pg administered as dorsal hippocampal infusion by novel object recognition test. It is filed as functional.
The test system of test [7] is Mus musculus. Briefly: Memory enhancement effect in C57BL/6 mouse assessed as time spent with moved object at 0.05 mg/kg, ip by novel object recognition test. In kind it is functional.
In test [8] the test system is Mus musculus. Briefly: Memory enhancement effect in C57BL/6 mouse assessed as time spent with novel object at 0.05 mg/kg, ip by novel object recognition test. It is filed as functional.
In test [9] the test system is Mus musculus. Briefly: Memory enhancement effect in C57BL/6 mouse assessed as time spent with moved object at 0.05 mg/kg, po administered via gavage by object recognition test. In kind it is functional.
The subject of test [10] is Mus musculus. Briefly: Memory enhancement effect in C57BL/6 mouse assessed as time spent with novel object at 0.05 mg/kg, po administered via gavage by novel object recognition test. In kind it is functional.

T1 sequence (Q92731 whole entry): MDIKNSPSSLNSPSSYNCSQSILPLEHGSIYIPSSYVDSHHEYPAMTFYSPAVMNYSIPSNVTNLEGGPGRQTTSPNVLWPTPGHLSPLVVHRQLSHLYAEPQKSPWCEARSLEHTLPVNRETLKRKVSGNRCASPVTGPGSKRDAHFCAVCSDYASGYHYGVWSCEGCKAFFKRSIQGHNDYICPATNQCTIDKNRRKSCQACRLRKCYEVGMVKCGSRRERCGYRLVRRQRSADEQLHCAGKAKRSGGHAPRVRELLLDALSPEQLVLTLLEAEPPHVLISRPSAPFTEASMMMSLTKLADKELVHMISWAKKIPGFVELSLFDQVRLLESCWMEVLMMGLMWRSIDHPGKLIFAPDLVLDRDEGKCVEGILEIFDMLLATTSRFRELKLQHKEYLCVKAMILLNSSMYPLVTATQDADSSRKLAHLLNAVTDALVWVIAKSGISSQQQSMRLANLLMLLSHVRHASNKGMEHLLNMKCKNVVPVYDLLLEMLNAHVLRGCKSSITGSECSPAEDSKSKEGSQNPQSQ

`O=C1CCC(c2ccc(O)cc2)CC1`: the EC50 at Estrogen receptor beta [1] came out at 19 µM.

Compound `C=C1CCC(c2ccc(O)c(/C=N/O)c2)CC1` returned an EC50 on Estrogen receptor beta [1] of 0.225 µM.

Regarding `C=C1CCC(c2ccc(O)cc2)CC1`, the EC50 at Estrogen receptor [2] and on Estrogen receptor [3] was more than 10 µM throughout.

At Estrogen receptor beta [1], `OC[C@]1(O)CC[C@H](c2ccc(O)cc2)CC1` showed a concentration for a half-maximal effect (EC50) of 2.7 µM.

`C[C@]1(O)CC[C@@H](c2ccc(O)cc2)CC1` had an EC50 at Estrogen receptor beta [1] of 6.29 µM.

As for `Oc1ccc([C@H]2CC[C@H](O)CC2)cc1`, on Estrogen receptor beta [1], a half-maximal effect (EC50) was put at 7.52 µM.

On to `ON=C1CCC(c2ccc(O)cc2)CC1` (stereo not drawn), for which, at Estrogen receptor beta [4], the EC50 amounted to 1.57 µM.

Regarding `OCCC1CCC(c2ccc(O)cc2)CC1` (stereo not drawn), the EC50 was more than 50 µM on Estrogen receptor [2] and more than 10 µM on Estrogen receptor [3].

Regarding `N#CC(Cc1ccc(O)cc1)c1ccc(O)cc1` (stereo not drawn) [DIARYLPROPIONITRILE], the Time is listed as 4.5 s with Mus musculus [5]; 2.35 s in the test with Mus musculus [6]; 3.2 s in the test on Mus musculus [7]; 3.52 s with Mus musculus [8]; 2.76 s in the test with Mus musculus [9]; 3.89 s in the test with Mus musculus [10].

`CC1CCC(c2ccc(O)cc2)CC1` (stereo not drawn): the EC50 on Estrogen receptor [2] and at Estrogen receptor [3] was more than 10 µM each time.

As for `OCC=C1CCC(c2ccc(O)cc2)CC1` (racemic), the EC50 on Estrogen receptor beta [4] was 0.68 µM.

For the compound `OCC1CC=C(c2ccc(O)cc2)CC1` (racemic), the 50% effective concentration (EC50) was more than 20 µM at Estrogen receptor [2] and more than 10 µM on Estrogen receptor [3].

For `Oc1ccc([C@]23CC[C@H](CC2)CO3)cc1`, a half-maximal effect at Estrogen receptor beta [1] (EC50) was put at 0.25 µM.

As to `C=C1CCC(c2ccc(O)c(C=O)c2)CC1`, at Estrogen receptor beta [1], the EC50 was determined as 21 µM.
